Test results from article PMC6182381, “Population Pharmacokinetics and Exposure-Response Relationships of Naldemedine” (Pharmaceutical Research, 2018).
Read-outs that look alike come from different tables or passages of the source.

Tests used:
[1] = tested on: patients with chronic non-cancer pain and OIC; parameters: method as in PMID 28371937; conditions: Phase 2b, cited from earlier work
[2] = tested on: patients with chronic non-cancer pain and OIC; assay: SBM responder, phase 2b study 1107 V9221 (observed and PK/Efficacy logistic model); type: in vivo, human; conditions: for SBM responder, Observation / SBM responder, Prediction: 1107V9221 (Phase 2b); for SBM Non_Responder frequency / SBM Responder frequency: PK/efficacy population, 1107 V9221 (Phase 2b); for Predicted probability of SBM responder: Phase 2b model
Description: (§1) Exposure-response analysis was used to evaluate the efficacy and safety data of the phase 2b and phase 3 studies ([2],[5]). The PK/Efficacy analysis included the subjects of the population PK analysis or in the placebo group, who also had efficacy data for the exposure-response analysis obtained from phase 2b and phase 3 studies (1107 V9221, 1314 V9231, and 1315 V9232). The PK/Safety analysis included the subjects of the population PK analysis or in the placebo group, who also had safety data for exposure-response analysis obtained from phase 2b and phase 3 studies (1107 V9221, 1314 V9231, and 1315 V9232).
(§2) The following efficacy variables were used to evaluate the exposure-response relationship. […] In the phase 3 studies (Study No. 1314 V9231 and 1315 V9232), an SBM responder was defined as having 9 positive response weeks or more out of the 12-weeks treatment period and 3 positive response weeks out of the last 4 weeks of the 12-weeks treatment period. A positive response week was defined as a week with both ≥3 SBMs and an increase of ≥1 SBM from the baseline. A subject with any insufficient response data was treated as a “non-responder”. The occurrence of treatment-emergent adverse events of gastrointestinal disorders as system organ class, which was the most frequently occurring type, was defined by the severity and assessed as safety variables.
(§3) No covariate was tested in the exposure-response analysis because no prognostic factors of the efficacy or safety were identified in the phase 2b and phase 3 studies ([2],[5]). Efficacy and safety data in Study No. 1314 V9231 and 1315 V9232 were combined because these studies were conducted as pivotal phase 3 studies using the same study design and were of the same treatment duration. The individual AUCss values for naldemedine were estimated by empirical Bayes estimation based on the population PK model. AUCss values of the subjects in the placebo group were treated as zero (0). For efficacy (responder or non-responder) and safety (occurrence of gastrointestinal disorders or not) variables, relationships to PK parameters were examined using the logistic model as shown in Eq. (3) with SAS (Version 9.2, SAS Institute).3 Probabilityefficacy or safety event=1/1+exp−a−b×PKparameter where a and b are the parameters to be estimated.

[3] = tested on: patients with chronic non-cancer pain and OIC; assay: Adverse events / gastrointestinal disorders, phase 2b study 1107 V9221 (observed and PK/Safety logistic model); type: in vivo, human; conditions: for Gastrointestinal disorders, Mild / Gastrointestinal disorders, Moderate / Gastrointestinal disorders, Not_Reported / Gastrointestinal disorders, Severe: PK/safety population, 1107 V9221 (Phase 2b); for Predicted probability of gastrointestinal disorders: Phase 2b model; for Predicted probability of gastrointestinal disorders / Gastrointestinal disorders, Observation / Gastrointestinal disorders, Prediction: Moderate, Severe; for Gastrointestinal disorders, Observation / Gastrointestinal disorders, Prediction: Phase 2b
Description: as §1, §2, §3

[4] = tested on: patients with chronic non-cancer pain and OIC; assay: Adverse events / gastrointestinal disorders, phase 3 studies 1314 V9231 and 1315 V9232 (observed and PK/Safety logistic model); type: in vivo, human; conditions: for Predicted probability of gastrointestinal disorders: Phase 3 model
Description: as §1, §2, §3

[5] = parameters: method as in earlier work; conditions: oral 2 mg [14C]-labeled naldemedine; cited from earlier work
[6] = tested on: patients with chronic non-cancer pain and OIC; assay: SBM responder, phase 3 studies 1314 V9231 and 1315 V9232 (observed and PK/Efficacy logistic model); type: in vivo, human; conditions: for Predicted probability of SBM responder: Phase 3 model
Description: as §1, §2, §3

[7] = parameters: method as in PMID 28466424, PMID 28960888; conditions: cited from earlier work
[8] = tested on: patients with chronic non-cancer pain and OIC; parameters: method as in PMID 28576452; conditions: cited from earlier work
[9] = tested on: patients with chronic non-cancer pain and OIC; parameters: method as in PMID 28371937; conditions: Study 1107 V9221 (Phase 2b), cited from earlier work
[10] = PK/safety population, 1314 V9231 and 1315 V9232 (Phase 3), 0.2 mg
[11] = Phase 3, Mild, Moderate, Severe, 0.2 mg
[12] = Phase 3, Moderate, Severe, 0.2 mg
[13] = 1314V9231 and 1315V9232 (Phase 3), 0.2 mg
[14] = PK/efficacy population, 1314 V9231 and 1315 V9232 (Phase 3), 0.2 mg

For `CC(C)(NC(=O)C1=C(O)[C@@H]2Oc3c(O)ccc4c3[C@@]23CCN(CC2CC2)[C@H](C4)[C@]3(O)C1)c1nc(-c2ccccc2)no1` [naldemedine], the Treatment-emergent adverse events ([1]; 0.1 mg) is given as 66.1%, the Treatment-emergent adverse events ([1]; 0.2 mg) is given as 67.2% and the Treatment-emergent adverse events ([1]; 0.4 mg) is given as 78.6%. The “predicted probability of SBM responders” value ([2]; 0.2 mg, phase 2b study 1107 V9221) was 52.7%, the “SBM responder, Observation” value ([2]; 0.1 mg) was 55.6 and the “SBM responder, Prediction” value ([2]; 0.1 mg) was 47.4. For the same compound, the “SBM responder, Observation” value ([2]; 0.2 mg) was 66.7, the “SBM responder, Prediction” value ([2]; 0.2 mg) was 52.7 and the “SBM responder, Observation” value ([2]; 0.4 mg) was 60.0. For the same compound, the “SBM responder, Prediction” value ([2]; 0.4 mg) was 63.0, the “SBM Non_Responder frequency” value ([2]; 0.1 mg) was 4 (44.4) Count (Percent) and the “SBM Responder frequency” value ([2]; 0.1 mg) was 5 (55.6) Count (Percent). The “SBM Non_Responder frequency” value ([2]; 0.2 mg) was 3 (33.3) Count (Percent), the “SBM Responder frequency” value ([2]; 0.2 mg) was 6 (66.7) Count (Percent) and the “SBM Non_Responder frequency” value ([2]; 0.4 mg) was 4 (40.0) Count (Percent). The “SBM Responder frequency” value ([2]; 0.4 mg) was 6 (60.0) Count (Percent), the “Predicted probability of SBM responder” value ([2]; Dose: 0.1 mg) was 0.474 and the “Predicted probability of SBM responder” value ([2]; Dose: 0.2 mg) was 0.527. For the same compound, the “Predicted probability of SBM responder” value ([2]; Dose: 0.4 mg) was 0.630, the “Gastrointestinal disorders, Mild” value ([3]; 0.1 mg) was 1 (11.1) Count (Row percent) and the “Gastrointestinal disorders, Moderate” value ([3]; 0.1 mg) was 1 (11.1) Count (Row percent). The “Gastrointestinal disorders, Not_Reported” value ([3]; 0.1 mg) was 7 (77.8) Count (Row percent), the “Gastrointestinal disorders, Severe” value ([3]; 0.1 mg) was 0 (0.0) Count (Row percent) and the “Gastrointestinal disorders, Mild” value ([3]; 0.2 mg) was 1 (11.1) Count (Row percent). The “Gastrointestinal disorders, Moderate” value ([3]; 0.2 mg) was 3 (33.3) Count (Row percent), the “Gastrointestinal disorders, Not_Reported” value ([3]; 0.2 mg) was 5 (55.6) Count (Row percent) and the “Gastrointestinal disorders, Severe” value ([3]; 0.2 mg) was 0 (0.0) Count (Row percent). For the same compound, the “Gastrointestinal disorders, Mild” value ([3]; 0.4 mg) was 2 (20.0) Count (Row percent), the “Gastrointestinal disorders, Moderate” value ([3]; 0.4 mg) was 1 (10.0) Count (Row percent) and the “Gastrointestinal disorders, Not_Reported” value ([3]; 0.4 mg) was 7 (70.0) Count (Row percent). For the same compound, the “Gastrointestinal disorders, Severe” value ([3]; 0.4 mg) was 0 (0.0) Count (Row percent), the “Predicted probability of gastrointestinal disorders” value ([3]; Mild, Dose: 0.1 mg) was 0.195 and the “Predicted probability of gastrointestinal disorders” value ([3]; Mild, Dose: 0.2 mg) was 0.254. For the same compound, the “Predicted probability of gastrointestinal disorders” value ([3]; Mild, Dose: 0.4 mg) was 0.403, the “Predicted probability of gastrointestinal disorders” value ([3]; Dose: 0.1 mg) was 0.078 and the “Predicted probability of gastrointestinal disorders” value ([3]; Dose: 0.2 mg) was 0.101. For the same compound, the “Predicted probability of gastrointestinal disorders” value ([3]; Dose: 0.4 mg) was 0.165, the “Gastrointestinal disorders, Observation” value ([3]; Mild, 0.1 mg) was 22.2 and the “Gastrointestinal disorders, Prediction” value ([3]; Mild, 0.1 mg) was 19.5. The “Gastrointestinal disorders, Observation” value ([3]; Mild, 0.2 mg) was 44.4, the “Gastrointestinal disorders, Prediction” value ([3]; Mild, 0.2 mg) was 25.4 and the “Gastrointestinal disorders, Observation” value ([3]; Mild, 0.4 mg) was 30.0. The “Gastrointestinal disorders, Prediction” value ([3]; Mild, 0.4 mg) was 40.3, the “Gastrointestinal disorders, Observation” value ([3]; 0.1 mg) was 11.1 and the “Gastrointestinal disorders, Prediction” value ([3]; 0.1 mg) was 7.8. The “Gastrointestinal disorders, Observation” value ([3]; 0.2 mg) was 33.3, the “Gastrointestinal disorders, Prediction” value ([3]; 0.2 mg) was 10.1 and the “Gastrointestinal disorders, Observation” value ([3]; 0.4 mg) was 10.0. For the same compound, the “Gastrointestinal disorders, Prediction” value ([3]; 0.4 mg) was 16.5, the “predicted probability of severe gastrointestinal disorders” value ([4]; 0.2 mg and 0.4 mg, phase 3 study) was “less than 3%” and the “predicted probability of severe gastrointestinal disorders” value ([4]; 0.2 mg once daily) was “less than 3%”. The “predicted probability of mild to severe gastrointestinal disorders” value ([4]; 0.2 mg, phase 3) was 19.3%, the “predicted probability of moderate to severe gastrointestinal disorders” value ([4]; 0.2 mg, phase 3) was 8.3% and the “predicted probability of severe gastrointestinal disorders” value ([4]; 0.2 mg, phase 3) was 1.8%. For the same compound, the “Gastrointestinal disorders, Mild” value [4, 10] was 52 (11.7) Count (Row percent), the “Gastrointestinal disorders, Moderate” value [4, 10] was 34 (7.6) Count (Row percent) and the “Gastrointestinal disorders, Not_Reported” value [4, 10] was 351 (78.9) Count (Row percent). The “Gastrointestinal disorders, Severe” value [4, 10] was 8 (1.8) Count (Row percent), the “Gastrointestinal disorders, Observation” value [4, 11] was 21.1 and the “Gastrointestinal disorders, Prediction” value [4, 11] was 19.3. For the same compound, the “Gastrointestinal disorders, Observation” value [4, 12] was 9.4, the “Gastrointestinal disorders, Prediction” value [4, 12] was 8.3 and the “Gastrointestinal disorders, Observation” value ([4]; Phase 3, Severe, 0.2 mg) was 1.8. The “Gastrointestinal disorders, Prediction” value ([4]; Phase 3, Severe, 0.2 mg) was 1.8, the “Predicted probability of gastrointestinal disorders” value ([4]; Mild, Moderate, Severe, Dose: 0.1 mg) was 0.172 and the “Predicted probability of gastrointestinal disorders” value ([4]; Mild, Moderate, Severe, Dose: 0.2 mg) was 0.193. The “Predicted probability of gastrointestinal disorders” value ([4]; Mild, Moderate, Severe, Dose: 0.4 mg) was 0.242, the “Predicted probability of gastrointestinal disorders” value ([4]; Moderate, Severe, Dose: 0.1 mg) was 0.071 and the “Predicted probability of gastrointestinal disorders” value ([4]; Moderate, Severe, Dose: 0.2 mg) was 0.083. For the same compound, the “Predicted probability of gastrointestinal disorders” value ([4]; Moderate, Severe, Dose: 0.4 mg) was 0.113, the “Predicted probability of gastrointestinal disorders” value ([4]; Severe, Dose: 0.1 mg) was 0.015 and the “Predicted probability of gastrointestinal disorders” value ([4]; Severe, Dose: 0.2 mg) was 0.018. For the same compound, the “Predicted probability of gastrointestinal disorders” value ([4]; Severe, Dose: 0.4 mg) was 0.027, the “total radioactivity excreted in feces” value [5] was 35 % of the administered dose and the “total radioactivity excreted in urine” value [5] was 57 % of the administered dose. The “predicted probability of SBM responders” value ([6]; 0.2 mg once daily, phase 2b and phase 3 studies) was “approximately 50%”, the “predicted probability of SBM responders” value ([6]; 0.2 mg, phase 3 studies 1314 V9231 and 1315 V9232) was 49.9% and the “SBM responder, Observation” value [6, 13] was 53.3. For the same compound, the “SBM responder, Prediction” value [6, 13] was 49.9, the “SBM Non_Responder frequency” value [6, 14] was 208 (46.7) Count (Percent) and the “SBM Responder frequency” value [6, 14] was 237 (53.3) Count (Percent). For the same compound, the “Predicted probability of SBM responder” value ([6]; Dose: 0.1 mg) was 0.433, the “Predicted probability of SBM responder” value ([6]; Dose: 0.2 mg) was 0.499 and the “Predicted probability of SBM responder” value ([6]; Dose: 0.4 mg) was 0.630. The “time dependence of PK” value ([7]; AUC Day 1 vs AUCss Day 10, multiple dose study) was “time-independent”, the “dose proportionality of systemic exposure” value ([7]; dose range 0.1 mg to 100 mg) was “almost dose proportional” and the “time to reach steady state” value ([7]; multiple dose study, 3 mg, 10 mg and 30 mg, trough Days 2 to 10) was at most 2 days. For the same compound, the “Treatment-related adverse events (patients)” value ([8]; Study 1314 V9231, 59 of 271 patients) was 22%, the “Treatment-related adverse events (patients)” value ([8]; Study 1315 V9232, 54 of 271 patients) was 20% and the “proportion of SBM responders” value ([9]; 0.1 mg) was 52.5%. The “proportion of SBM responders” value ([9]; 0.2 mg) was 71.2% and the “proportion of SBM responders” value ([9]; 0.4 mg) was 66.7%.
